Results from article PMC2233662 (The Journal of General Physiology, 2001).

Target: r-InsP3R-3 (recombinant rat type 3 InsP3R) (Rattus norvegicus, UniProt Q63269)
Assay: single-channel patch clamp of outer nuclear membrane of isolated oocyte nuclei
Format: cell-based

r-InsP3R-3 (recombinant rat type 3 InsP3R), sequence (Q63269 whole entry): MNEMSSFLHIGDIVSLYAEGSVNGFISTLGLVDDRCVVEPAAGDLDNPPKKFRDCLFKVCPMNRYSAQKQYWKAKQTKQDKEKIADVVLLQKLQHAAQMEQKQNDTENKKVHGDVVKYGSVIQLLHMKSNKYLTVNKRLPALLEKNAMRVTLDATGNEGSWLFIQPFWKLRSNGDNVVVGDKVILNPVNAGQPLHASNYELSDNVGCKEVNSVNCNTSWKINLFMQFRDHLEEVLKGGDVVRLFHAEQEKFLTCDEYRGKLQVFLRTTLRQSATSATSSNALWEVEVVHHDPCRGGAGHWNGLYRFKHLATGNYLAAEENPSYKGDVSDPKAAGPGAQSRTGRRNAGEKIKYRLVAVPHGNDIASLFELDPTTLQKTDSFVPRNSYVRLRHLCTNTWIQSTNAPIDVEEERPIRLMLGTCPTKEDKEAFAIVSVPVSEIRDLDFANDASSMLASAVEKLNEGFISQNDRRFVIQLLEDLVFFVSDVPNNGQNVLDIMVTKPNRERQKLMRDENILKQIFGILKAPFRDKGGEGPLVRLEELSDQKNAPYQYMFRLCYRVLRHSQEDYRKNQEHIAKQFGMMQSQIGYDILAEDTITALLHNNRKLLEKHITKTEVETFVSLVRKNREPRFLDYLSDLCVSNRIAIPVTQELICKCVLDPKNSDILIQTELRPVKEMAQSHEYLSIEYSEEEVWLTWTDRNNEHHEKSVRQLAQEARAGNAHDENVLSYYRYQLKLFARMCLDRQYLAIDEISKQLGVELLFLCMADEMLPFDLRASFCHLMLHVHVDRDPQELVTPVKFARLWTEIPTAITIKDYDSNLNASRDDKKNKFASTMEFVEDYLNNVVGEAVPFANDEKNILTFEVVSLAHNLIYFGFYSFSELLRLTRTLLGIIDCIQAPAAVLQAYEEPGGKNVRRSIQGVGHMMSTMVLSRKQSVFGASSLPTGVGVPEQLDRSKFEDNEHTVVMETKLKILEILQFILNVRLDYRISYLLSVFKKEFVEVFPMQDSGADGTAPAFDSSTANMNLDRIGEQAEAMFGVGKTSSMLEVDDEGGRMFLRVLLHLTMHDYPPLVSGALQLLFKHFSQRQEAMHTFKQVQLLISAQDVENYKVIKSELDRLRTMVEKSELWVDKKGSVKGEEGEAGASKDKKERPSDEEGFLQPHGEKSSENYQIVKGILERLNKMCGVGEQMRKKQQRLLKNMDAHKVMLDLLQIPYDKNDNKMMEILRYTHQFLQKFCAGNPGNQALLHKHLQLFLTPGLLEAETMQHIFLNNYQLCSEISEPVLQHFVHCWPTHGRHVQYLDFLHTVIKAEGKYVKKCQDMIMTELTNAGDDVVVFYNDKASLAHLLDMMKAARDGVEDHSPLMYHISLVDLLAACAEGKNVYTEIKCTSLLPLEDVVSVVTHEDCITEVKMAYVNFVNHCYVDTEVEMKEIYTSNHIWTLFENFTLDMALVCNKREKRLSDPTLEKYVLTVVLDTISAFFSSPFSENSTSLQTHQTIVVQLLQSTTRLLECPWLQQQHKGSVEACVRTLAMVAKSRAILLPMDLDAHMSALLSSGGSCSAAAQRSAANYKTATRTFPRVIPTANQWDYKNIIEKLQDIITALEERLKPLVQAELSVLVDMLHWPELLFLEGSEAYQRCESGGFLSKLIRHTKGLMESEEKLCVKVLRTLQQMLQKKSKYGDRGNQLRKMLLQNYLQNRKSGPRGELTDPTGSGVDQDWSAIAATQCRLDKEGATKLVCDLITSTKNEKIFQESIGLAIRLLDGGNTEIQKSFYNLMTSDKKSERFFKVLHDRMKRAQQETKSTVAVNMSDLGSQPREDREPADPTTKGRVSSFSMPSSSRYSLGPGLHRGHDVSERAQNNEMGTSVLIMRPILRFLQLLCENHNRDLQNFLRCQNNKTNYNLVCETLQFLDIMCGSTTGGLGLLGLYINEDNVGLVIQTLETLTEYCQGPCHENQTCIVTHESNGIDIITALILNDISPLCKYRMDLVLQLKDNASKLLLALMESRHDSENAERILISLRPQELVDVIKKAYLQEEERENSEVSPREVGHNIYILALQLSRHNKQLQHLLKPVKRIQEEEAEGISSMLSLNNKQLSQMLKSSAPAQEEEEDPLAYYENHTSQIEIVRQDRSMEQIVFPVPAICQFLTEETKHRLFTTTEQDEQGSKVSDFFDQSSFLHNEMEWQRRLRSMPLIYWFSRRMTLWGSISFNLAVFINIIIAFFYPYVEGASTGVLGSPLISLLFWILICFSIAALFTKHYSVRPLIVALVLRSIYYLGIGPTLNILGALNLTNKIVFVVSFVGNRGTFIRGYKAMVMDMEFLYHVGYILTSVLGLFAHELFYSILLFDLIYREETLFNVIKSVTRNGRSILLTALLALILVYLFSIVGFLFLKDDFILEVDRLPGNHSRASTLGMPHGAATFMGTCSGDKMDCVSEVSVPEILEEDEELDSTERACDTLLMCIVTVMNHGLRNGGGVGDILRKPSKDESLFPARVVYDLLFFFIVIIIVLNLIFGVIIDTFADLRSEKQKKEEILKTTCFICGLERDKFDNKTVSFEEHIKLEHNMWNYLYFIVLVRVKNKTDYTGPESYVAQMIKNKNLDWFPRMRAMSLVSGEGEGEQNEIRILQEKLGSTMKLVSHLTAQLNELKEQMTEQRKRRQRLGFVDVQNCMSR

EC50: 0.055 ± 0.006 µM
Structure (SMILES): O=P(O)(O)O[C@@H]1[C@H](O)[C@H](O)[C@@H](OP(=O)(O)O)[C@H](OP(=O)(O)O)[C@H]1O [InsP3]
